Data set [1] has as its system Trichophyton asteroides. Kind of data set: Minimum inhibitory concentration on Sabouraud's agar medium (Yamano et al. method). The note with it: 168 h, agar plate, 27°C for 7 days. Format: cell-based. The method, then:
(§1) Sabouraud's agar medium was used as a culture medium. (A liquid culture medium was prepared from the same ingredients except for agar).
(§2) This culture medium was prepared by dissolving the above ingredients under heat, and the medium thus prepared was sterilized under the conditions of 1.05 bar (15 Ibs.lin^2) for 15 minutes.
(§3) The microorganisms to be tested were fungi of the species Trichophyton mentagrophytes (A), Trichophyton asteroides (B) and Candida a/bicans (C). Each of these microorganisms was cultivated on the corresponding slant medium at 27°C for 7 days. A loopful of each of the microorganisms (A), (B) and (C) was triturated in a mortar, charged into a test tube containing 10 ml of physiological saline solution, and suspended therein with a thermomixer. Each of the suspensions thus prepared was used in the test.
(§4) 9 ml of the culture medium and 1 ml of a dilute sample were thoroughly admixed with each other in a Petri dish to prepare an agar plate, which was then streaked with the suspension containing each of the microorganisms to be tested by using a sterile platinum wire loop. The microorganisms (A), (B) and (C) thus inoculated on the agar plates were cultivated at 27°C for 7 days, and thereafter the MIC thereof was determined.

Data set [2] concerns Candida albicans. The data set is described as above. It is filed as cell-based. The note with it: 168 h, agar plate, 27°C for 7 days. The method, then:
as §1, §2, §3, §4

Data set [3] relates to Trichophyton mentagrophytes. The data set is described as above. Format: cell-based. The note with it: 168 h, agar plate, 27°C for 7 days. The method, then: as §1, §2, §3, §4
The subject of data set [4] is P388 leukemia. Kind of data set: Antitumor activity against intraperitoneally transplanted P388 leukemia in mice. Format: in vivo. The note with it: given 1 day and 5 days after transplantation of P388 leukemia 1 x 10^6 cells/mouse i.p., survival days of saline control group = 100. The method, then: For example, into CDF, mice were intraperitoneally transplanted P388 leukemia 1 x 10^6 cells/mouse as a suspension, and 2-bromo-6,7-dichloro-1-tetralone which is typical of the compounds of the present invention was administered to the mice 1 day and 5 days respectively after the transplantation. The effect of the test compound was evaluated in terms of the increase of life span (%) as calculated by determining the survival days of the control group consisting of mice administered with physiological saline solution as 100.

A short description of data set [5]: Toxicity (LD50) to mice. Particulars: mouse, in vivo.

Four molecules from EP0125695B1, “2-Bromo-1-tetralone derivatives” (KIRIN BEER KABUSHIKI KAISHA, priority 1983, dated 1984) can be followed below.

For orientation: MIC means the lowest concentration found to suppress growth. A higher MIC goes with a need for much substance. Broadly, the LD50 is the dose at which mortality reaches 50%. Higher therefore signals a less toxic substance.

≈ marks a conversion by molar mass, not a printed value. Where only a bound is given, the exact number is not on record here.

Turning to `O=C1c2cc(Cl)cc(Cl)c2CCC1Br` (centres unmarked) [2-bromo-5,7-dichloro-1-tetralone], the MIC in data set [1], in data set [2] and in data set [3] was 1.56 µg/mL (≈ 5.31 µM) throughout.

Regarding `O=C1c2cc(F)ccc2CCC1Br` (centres unmarked) [2-bromo-7-fluoro-1-tetralone], the MIC amounted to 3.13 µg/mL (≈ 12.9 µM) in data set [1], 6.25 µg/mL (≈ 25.7 µM) in data set [2] and 3.13 µg/mL (≈ 12.9 µM) in data set [3].

Turning to `COC1=CC(=O)C[C@@H](C)[C@]12Oc1c(Cl)c(OC)cc(OC)c1C2=O` [griseofulvin, reference compound], the MIC in data set [1] is 6.25 µg/mL (≈ 17.7 µM); in data set [2], over 200 µg/mL; in data set [3] it was 6.25 µg/mL (≈ 17.7 µM).

Regarding `O=C1c2cc(Cl)c(Cl)cc2CCC1Br` (centres unmarked) [2-bromo-6,7-dichloro-1-tetralone], the “Survival time relative to saline control (T/C, control = 100)” value is on record as 129% in data set [4] (Dose 10.0 mg/kg/day) and 140% in data set [4] (Dose 50.0 mg/kg/day). Besides, the MIC was 0.78 to 1.56 µg/mL (≈ 2.65 to 5.31 µM) in data set [1], 1.56 µg/mL (≈ 5.31 µM) in data set [2] and 0.78 µg/mL (≈ 2.65 µM) in data set [3]. In addition, the LD50 was over 1500 mg/kg in data set [5] (Oral); 820 mg/kg in data set [5] (ip, Intraperitoneal); over 1500 mg/kg in data set [5] (sc, Subcutaneous).
